From PMC10947119 (Angewandte Chemie (International Ed. in English), 2023)

What was measured:
[1] = molecular target: T1, MtbPPAT (Mycobacterium tuberculosis, UniProt P9WPA5); assay type: binding; details: for Affinity increase (KD lower) relative to parent indole fragment 12: KD by ITC vs KD of 12
[2] = molecular target: T1, MtbPPAT; assay: MtbPPAT activity assay; assay type: biochemical; details: 1 mM compound, ATP 120, 240, 500 µM
[3] = system: PPAT of Mycobacterium abscessus; details: cited from earlier work
[4] = system: Mycobacterium abscessus; details: cited from earlier work
[5] = system: wildtype Mtb H37RvMA; assay type: cell-based, Mycobacterium tuberculosis
[6] = molecular target: T1, MtbPPAT; details: read-out: KD, previous estimates; ITC, near-identical conditions; cited from earlier work

T1 sequence (P9WPA5 whole entry, looked up, the tested form may be a part): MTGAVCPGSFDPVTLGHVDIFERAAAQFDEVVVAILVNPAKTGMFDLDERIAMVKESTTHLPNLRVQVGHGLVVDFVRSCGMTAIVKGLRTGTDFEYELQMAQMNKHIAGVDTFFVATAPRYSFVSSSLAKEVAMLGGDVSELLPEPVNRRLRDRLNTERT

O=C(O)c1cnn(-c2ccccc2)c1OCCc1c[nH]c2ccccc12 [compound 19]
Affinity increase (KD lower) relative to parent indole fragment 12 [1]: ≈ 25 fold

O=C(O)c1cnn(-c2ccccc2)c1OCCCc1c[nH]c2ccccc12 [compound 20]
Affinity increase (KD lower) relative to parent indole fragment 12 [1]: ≈ 65 fold | Ligand efficiency LE ([1]; from direct ITC KD, Condition 1 (20 mM NaCl)): 0.24 kcal mol^−1 NHA^−1 | Mode of inhibition of MtbPPAT activity [2]: ATP‐competitive manner | Affinity for M. abscessus PPAT [3]: low‐micromolar affinity | Whole-cell activity against M. abscessus [4]: lacked whole‐cell activity | Effect of ATc on potency [5]: no effect

CC(C)(COP(=O)(O)OP(=O)(O)OC[C@H]1O[C@@H](n2cnc3c(N)ncnc32)[C@H](O)[C@@H]1OP(=O)(O)O)[C@@H](O)C(=O)NCCC(=O)NCCS [CoA, coenzyme A]
Kd [6]: ≥ 13 µM
